Data from patent US20070134353A1, “PHYTOESTROGENIC COMPOSITION COMPRISING AN EXTRACT OF CHINESE LICORICE ROOT, ISOLIQUIRITIN OR LIQUIRITIN” (priority 2004, published 2007).
“Also recorded” adds a separate entry of the source.

Legend:
[1] = system: MCF-7 breast cancer cells; assay: Inhibitory effect on MCF-7 cell line proliferation (DNA content, OD 260 nm); format: cell-based; conditions: for inhibition of proliferation of MCF-7 breast cancer cell line: 100 μg/ml; for inhibition of proliferation of cancer cells including breast cancer cells: summary statement, no concentration given
Experimental: (§1) 5×10^4 cells/ml of MCF-7 cells (ATCC HTB-22) were placed in a 6-well culture plate and allowed to be attached for 24 hours. Phenol red-free D-medium supplemented with 5% fetal bovine serum (FBS) and 3 Ml/l PSN antibiotic mixture (Gibco, USA) was added thereto, followed by incubation in an incubator kept at 5% CO2, 95% air, 100% humidity, 37° C. for 24 hours. After incubation for 24 hours, the medium was removed and the cultured cells were incubated in phenol red-free D-medium supplemented with 5% DCC-FBS (dextran-coated charcoal-stripped FBS; […] During the incubation, the test media were changed once. After 72 hours, the cells were treated with 1 Ml of 0.1 N NaOH (Sigma Co.) and collected to examine DNA content with a spectrophotometer at OD 260 nm.

androgen receptor (hAR) = target: T1, androgen receptor (hAR) (Homo sapiens, UniProt P10275); assay: Yeast assay, yeast androgen response (YAR), β-gal reporter; format: cell-based; conditions: summary statement, no concentration given
T1 construct: expressed in transfected cells; host or cells: recombinant Saccharomyces cerevisiae (from Dr. Donald P. McDonnell, Duke University)
T1 sequence (P10275 1-920): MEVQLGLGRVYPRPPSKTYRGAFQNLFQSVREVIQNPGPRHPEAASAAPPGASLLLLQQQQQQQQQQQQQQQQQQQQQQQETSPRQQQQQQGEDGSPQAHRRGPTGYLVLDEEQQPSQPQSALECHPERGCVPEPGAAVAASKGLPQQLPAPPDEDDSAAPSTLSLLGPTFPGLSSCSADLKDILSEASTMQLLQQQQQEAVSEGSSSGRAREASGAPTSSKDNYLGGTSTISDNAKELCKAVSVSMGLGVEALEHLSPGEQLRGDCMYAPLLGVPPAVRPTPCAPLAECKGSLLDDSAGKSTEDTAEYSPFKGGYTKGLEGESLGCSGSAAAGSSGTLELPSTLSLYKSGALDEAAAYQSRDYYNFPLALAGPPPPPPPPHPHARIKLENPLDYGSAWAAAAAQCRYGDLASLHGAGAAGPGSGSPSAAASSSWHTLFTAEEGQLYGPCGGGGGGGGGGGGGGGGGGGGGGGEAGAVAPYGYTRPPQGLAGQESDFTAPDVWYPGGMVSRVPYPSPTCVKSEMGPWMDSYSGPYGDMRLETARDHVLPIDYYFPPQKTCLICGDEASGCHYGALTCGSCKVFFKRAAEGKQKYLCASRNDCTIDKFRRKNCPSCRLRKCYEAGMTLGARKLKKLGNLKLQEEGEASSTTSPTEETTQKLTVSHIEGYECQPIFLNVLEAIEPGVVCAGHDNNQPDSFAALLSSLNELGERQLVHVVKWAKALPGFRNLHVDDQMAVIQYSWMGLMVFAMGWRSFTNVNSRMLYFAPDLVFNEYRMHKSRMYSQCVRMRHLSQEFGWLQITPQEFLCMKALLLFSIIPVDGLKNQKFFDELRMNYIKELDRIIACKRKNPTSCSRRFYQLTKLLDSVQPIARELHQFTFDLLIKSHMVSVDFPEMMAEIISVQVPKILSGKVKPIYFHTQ

[2] = system: bisphenol-A (BPA) activity in MCF-7 cells; assay: Inhibitory effect on bisphenol-A (BPA) activity in MCF-7 cells; format: cell-based; conditions: summary statement, no concentration given
Experimental: as §1, with “nm. Additionally, in order to examine if the Chinese licorice root extract can suppress activity of bisphenol-A (BPA), which is an endocrine disruptor having tumor-inducing activity, in the foregoing experiment, BPA was used instead of the Chinese licorice root extract or the Chinese licorice root extract and BPA were used simultaneously. […]” for “nm.”

[3] = target: T2, human estrogen receptor (hER) (Homo sapiens, UniProt P03372); assay: Yeast assay, yeast estrogen response (YER), β-gal reporter; format: cell-based; conditions: for estrogenicity: summary statement, no concentration given
T2 construct: expressed in transfected cells; host or cells: Saccharomyces cerevisiae ER+LYS 8127 (from Dr. Donald P. McDonnell, Duke University)
T2 sequence (P03372 1-595): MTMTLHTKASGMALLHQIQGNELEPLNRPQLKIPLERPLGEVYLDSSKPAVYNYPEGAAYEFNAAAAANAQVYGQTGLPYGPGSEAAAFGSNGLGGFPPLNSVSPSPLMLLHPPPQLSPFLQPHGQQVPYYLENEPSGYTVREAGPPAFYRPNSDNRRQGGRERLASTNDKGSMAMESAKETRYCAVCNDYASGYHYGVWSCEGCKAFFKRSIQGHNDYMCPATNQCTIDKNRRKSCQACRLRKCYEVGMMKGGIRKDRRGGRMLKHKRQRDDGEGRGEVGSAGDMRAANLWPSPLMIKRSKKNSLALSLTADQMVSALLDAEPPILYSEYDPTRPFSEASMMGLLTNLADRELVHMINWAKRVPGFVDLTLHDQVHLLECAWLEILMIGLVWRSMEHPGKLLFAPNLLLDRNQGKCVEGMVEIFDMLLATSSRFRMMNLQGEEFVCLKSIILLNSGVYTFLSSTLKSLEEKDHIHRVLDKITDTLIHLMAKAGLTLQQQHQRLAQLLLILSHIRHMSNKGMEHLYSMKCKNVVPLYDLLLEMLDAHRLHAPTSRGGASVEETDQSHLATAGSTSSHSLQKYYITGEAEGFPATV
Experimental: Saccharomyces cerevisiae ER+[…], supplied by Dr. Donald P. […] The cultured yeasts were diluted in a medium to a proper concentration and 500 μM of CuSO4 (Sigma, USA) was added thereto. The diluted yeasts were then aliquoted into a 50 Ml tube at a proper level. […] Control group was treated with dimethyl sulfoxide (Sigma, USA). […] The experimental groups and control groups treated with the respective materials were then cultured for 18 hours in a shaking incubator (200 rpm). […] To each well, 100 μl of a Z buffer containing 2 mg/Ml o-nitrophenyl -β-D-galactopyranoside (Sigma, USA), 0.1% lauryl sulfate (Sigma, USA), 50 mM β-mercaptoethanol (BDH chemical LTD, England) and 200 U/Ml oxalyticase (Enzogenetics, USA) was added. After 20 minutes, the coloration was examined using a microplate reader at a wavelength of 420 nm. All the data were analyzed by ANOVA using the statistical program SAS and Dunnett's t-test was performed at significance level P<0.05.

[4] = system: uterus and vagina of immature Sprague-Dawley rats; assay: Immature uterotrophic assay; format: in vivo; conditions: BPA 40 mg/ml/100 g s.c. 3 days, compared to non-treated control group
Experimental: 40 immature Sprague-Dawley rats, aged 18 days, were kept in a breeding environment of a temperature of 22±3° C., a relative humidity of 50±10%, a ventilation frequency of 10 to 12 times/hr, light time of 12 hours, an illumination intensity of 150 to 200 lux while being supplied with AIN-76A diet (per 1 kg, thiamine HCI 0.6 g, riboflavin 0.6 g, pyridoxine HCI 0.7 g, […] 3.0 g, calcium pantothenate 1.6 g, folic acid 0.2 g, biotin 0.02 g, Vitamin B12 (0.1%) 1.0 g, Vitamin A palmitate (500,000 IU/g) 0.8 g, Vitamin D3 (400,000 IU/g) 0.25 g, Vitamin E acetate (500 IU/g) 10.0 g, menadion sodium bisulfite 0.08 g, fine powdery sucrose 981.15 g). Each rat was subcutaneously administered once daily with bisphenol A (40 mg/ml/100 g body weight) and the Chinese licorice root EtOH extract (10 mg or 50 mg/ml/100 g body weight) suspended in corn oil for 3 days. 24 hours after the last administration day, the animals were killed by cervical dislocation. […] In particular, the height of the luminal epithelium of the uterus lumen was measured and the luminal epithelium of the vagina was carefully observed. For statistical analysis of data with respect to body weight of test animals and the like which had been measured in the experiment, one-way ANOVA was performed to inspect significance between groups at p=0.05 level. […]

Compound	inhibition of proliferation of MCF-7 breast cancer cell line [1]	inhibitory effect on proliferation of breast cancer cells (MCF-7) ([1]; 300 μg/ml, FIG. 5)	inhibition of proliferation of cancer cells including breast cancer cells [1]	androgenicity (androgen receptor (hAR))	suppression of the activity of bisphenol-A [2]	estrogenicity (estrogen response, ER) ([3]; 10 μg/ml and 100 μg/ml, compared with positive control 10^−9 M estradiol, FIG. 2b)	estrogenicity [3]	concentration showing the highest estrogenicity ([3]; tested at 10 μg/ml and 100 μg/ml, FIG. 2b) [µg/mL]	effect on proliferation of MCF-7 cells ([1]; 16 μg/ml, pretest)	thickness of uterine epithelial cells ([4]; FIG. 14)	thickness of vagina epithelial cells ([4]; FIG. 15)
O=C(/C=C/c1ccc(O[C@@H]2O[C@H](CO)[C@@H](O)[C@H](O)[C@H]2O)cc1)c1ccc(O)cc1O [isoliquiritin, Isoliquiritin]	inhibited proliferation; also recorded: no significant proliferation of breast cancer cells was observed	excellent inhibitory effect	inhibit proliferation of cancer cells	do not show androgenicity	suppress the activity of bisphenol-A	higher than that of the positive control estradiol	show estrogenicity	10	–	–	–
Liquiritin	inhibited proliferation	–	inhibit proliferation of cancer cells	do not show androgenicity	suppress the activity of bisphenol-A	–	show estrogenicity	–	–	–	–
CC(C)(c1ccc(O)cc1)c1ccc(O)cc1 [BPA, bisphenol-A]	–	–	–	–	–	–	–	–	showed the highest effect on proliferation	increased	increased
